Where “and” joins values, the source holds several entries; their conditions need not be identical. Identical values can stand only once. Like-named read-outs stand apart in the source and are kept apart here.
Key:
Assay in all cases: Inside-out patch-clamp inhibition of CFTR current by Inh-172
Format in all cases: cell-based
M348K-CFTR = target: T1, M348K-CFTR (Homo sapiens, UniProt P13569, M348K)
T1 construct: expressed in transfected cells; host or cells: CHO cells, pcDNA plasmid
Protocol: (§1) CHO cells were grown at 37 °C in Dulbecco’s modified Eagle’s medium supplemented with 10% (vol/vol) fetal bovine serum (Sigma-Aldrich, St. Louis, MO). pcDNA plasmids carrying the desired CFTR construct were transfected to CHO cells using PolyFect transfection reagent (Qiagen, Hilden, Germany) together with green fluorescence protein (GFP) cDNA (pEGFP-C3, Takara Bio, Shiga, Japan) that helps identify expression of CFTR. Cells were first incubated with the transfection reagents at 37 °C for 6-12 hours on sterile glass chips in 35-mm tissue culture dishes before transferred to 27 °C for incubation for 2–7 days. Primers for mutations were ordered from Integrated DNA Technologies (Coralville, IA) and were summarized in Supplementary Data. All CFTR mutants were prepared with QuikChange XL kit (Agilent, Santa Clara, CA) and sequenced at the DNA Core facility at University of Missouri-Columbia.
(§2) Patch-clamp pipettes were made from borosilicate capillary glass using a two-stage vertical puller (PP-81; Narishige, Amityville, NY). The pipette tips were fire polished with a homemade microforge to yield a pipette resistance of 2–5 MΩ when filled with a pipette solution containing (in mM): 140 NMDG-Cl (N-methyl-D-glucamine-chloride), 5 CaCl2, 2 MgCl2, and 10 HEPES, pH 7.4. For recordings, transfected cells on glass chips were transferred into a continuously perfused chamber on the stage of an inverted microscope (IX51; Olympus, Tokyo, Japan) with the perfusing solution containing (in mM): 150 NMDG-Cl, 2 MgCl2, 10 EGTA, 8 Tris, and 10 HEPES, pH 7.4. The membrane patch was excised to an inside-out configuration with a seal resistance >40 GΩ. CFTR currents were recorded with an amplifier (EPC9; HEKA, Holliston, MA), filtered through an eight-pole Bessel filter (LPF-8; Warner Instruments, Hamden, CT) at 100 Hz and digitized to a computer at a sampling rate of 500 Hz with Pulse software (version 8.53; HEKA). The membrane potential was held at −30 mV. Solution exchange was achieved by a fast solution change system (SF-77B; Warner Instruments). Inh-172 was obtained from the CFTR Chemical Compound Program supported by the Cystic Fibrosis Foundation. All experiments were performed at room temperature.
(§3) The steady state mean currents were measured in the Igor Pro software (version 8.0; WaveMetrics). The mean baseline currents were subtracted from the steady state mean currents before the data were used to determine the degrees of inhibition. The degrees of inhibition by CFTR inhibitor 172 were calculated based on the equation:1 %inhibition=1−IInh−172/I0X100% where I0 and Iinh−172 represent uninhibited and inhibited currents, respectively. The IC50 and Hill coefficients were obtained by fitting percent inhibition as a function of [Inh-172] with the Hill equation:2 %inhibition=base+(max−base)/1+xhalf/x^rate where max and base represent the […] percent inhibition by Inh-172, x represents the concentration of Inh-172, and the rate is the Hill coefficient. The estimated IC50 (xhalf) and Hill coefficients are listed in Table 1 as mean ± standard deviation. Each patch-clamp recording was made from a separate cell.

T1142A-CFTR = target: T2, T1142A-CFTR (Homo sapiens, UniProt P13569, T1142A)
T2 construct: expressed in transfected cells; host or cells: CHO cells, pcDNA plasmid
T2 sequence (P13569 whole entry T1142A): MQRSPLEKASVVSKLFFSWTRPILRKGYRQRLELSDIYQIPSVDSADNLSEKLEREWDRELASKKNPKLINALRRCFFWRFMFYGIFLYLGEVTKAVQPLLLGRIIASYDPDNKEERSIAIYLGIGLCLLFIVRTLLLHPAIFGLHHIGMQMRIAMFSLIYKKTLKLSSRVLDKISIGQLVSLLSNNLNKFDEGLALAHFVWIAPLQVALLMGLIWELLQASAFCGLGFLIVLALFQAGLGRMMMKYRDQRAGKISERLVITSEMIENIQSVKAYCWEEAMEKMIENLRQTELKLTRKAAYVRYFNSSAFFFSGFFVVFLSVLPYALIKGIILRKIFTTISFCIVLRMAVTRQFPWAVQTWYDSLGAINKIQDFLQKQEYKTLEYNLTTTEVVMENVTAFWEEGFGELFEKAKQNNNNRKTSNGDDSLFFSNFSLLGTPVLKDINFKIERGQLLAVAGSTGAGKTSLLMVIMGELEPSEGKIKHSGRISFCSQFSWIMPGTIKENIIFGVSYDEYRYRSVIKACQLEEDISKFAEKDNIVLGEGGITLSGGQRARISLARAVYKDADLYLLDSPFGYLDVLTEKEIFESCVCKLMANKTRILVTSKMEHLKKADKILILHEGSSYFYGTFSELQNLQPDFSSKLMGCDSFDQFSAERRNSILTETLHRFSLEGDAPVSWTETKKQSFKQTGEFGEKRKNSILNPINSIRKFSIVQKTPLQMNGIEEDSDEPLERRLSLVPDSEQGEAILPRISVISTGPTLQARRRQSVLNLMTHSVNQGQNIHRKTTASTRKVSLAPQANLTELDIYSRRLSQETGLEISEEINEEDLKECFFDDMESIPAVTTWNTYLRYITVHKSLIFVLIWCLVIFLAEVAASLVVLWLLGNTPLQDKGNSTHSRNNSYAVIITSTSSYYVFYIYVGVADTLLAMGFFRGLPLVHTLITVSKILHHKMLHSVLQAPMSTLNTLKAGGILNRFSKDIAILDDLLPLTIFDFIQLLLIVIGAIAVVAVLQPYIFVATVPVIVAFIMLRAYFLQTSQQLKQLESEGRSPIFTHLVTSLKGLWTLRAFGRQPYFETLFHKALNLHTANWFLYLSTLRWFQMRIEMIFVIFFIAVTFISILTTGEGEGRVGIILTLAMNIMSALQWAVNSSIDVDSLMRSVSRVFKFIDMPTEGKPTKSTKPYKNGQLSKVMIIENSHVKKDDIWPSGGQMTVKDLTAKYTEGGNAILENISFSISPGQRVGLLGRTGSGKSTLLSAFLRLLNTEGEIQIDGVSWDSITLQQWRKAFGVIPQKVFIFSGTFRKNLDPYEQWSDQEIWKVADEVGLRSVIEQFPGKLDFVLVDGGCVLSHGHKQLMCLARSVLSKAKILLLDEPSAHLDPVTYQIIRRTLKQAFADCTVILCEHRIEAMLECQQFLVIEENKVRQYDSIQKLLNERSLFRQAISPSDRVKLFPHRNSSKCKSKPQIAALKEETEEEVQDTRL
Protocol: as §1, §2, §3

[1] = target: T3, h-pTMD2-h-CFTR (human CFTR with pig CFTR's TMD2) (Homo sapiens, UniProt P13569, A1009S/A789T/A797V/A842T/E1221D/E815D/F931L/G885K/H897K/H950R/I1005V/I1226V/I853V/I869V/I982V/INS1173D/K1174Q/K1177R/K830R/L805I/L889P/M1028L/M837V/M929L/N1184D/N782S/N886K/P888S/Q1012K/Q1035H/R1128T/R899A/S1196Q/S877C/S898G/S912A/T1171A/T1176N/T1179F/T1220V/T788A/T925G/V1017L/V1056I/V794M/W882C/Y1182S); conditions: for inhibition at 0.5 µM: 500 nM Inh-172; for inhibition at 1 µM: 1000 nM Inh-172; for inhibition at 10 µM: 10000 nM Inh-172
T3 construct: expressed in transfected cells; host or cells: CHO cells, pcDNA plasmid
T3 sequence (P13569 with tags, fused parts or gaps with the stated changes): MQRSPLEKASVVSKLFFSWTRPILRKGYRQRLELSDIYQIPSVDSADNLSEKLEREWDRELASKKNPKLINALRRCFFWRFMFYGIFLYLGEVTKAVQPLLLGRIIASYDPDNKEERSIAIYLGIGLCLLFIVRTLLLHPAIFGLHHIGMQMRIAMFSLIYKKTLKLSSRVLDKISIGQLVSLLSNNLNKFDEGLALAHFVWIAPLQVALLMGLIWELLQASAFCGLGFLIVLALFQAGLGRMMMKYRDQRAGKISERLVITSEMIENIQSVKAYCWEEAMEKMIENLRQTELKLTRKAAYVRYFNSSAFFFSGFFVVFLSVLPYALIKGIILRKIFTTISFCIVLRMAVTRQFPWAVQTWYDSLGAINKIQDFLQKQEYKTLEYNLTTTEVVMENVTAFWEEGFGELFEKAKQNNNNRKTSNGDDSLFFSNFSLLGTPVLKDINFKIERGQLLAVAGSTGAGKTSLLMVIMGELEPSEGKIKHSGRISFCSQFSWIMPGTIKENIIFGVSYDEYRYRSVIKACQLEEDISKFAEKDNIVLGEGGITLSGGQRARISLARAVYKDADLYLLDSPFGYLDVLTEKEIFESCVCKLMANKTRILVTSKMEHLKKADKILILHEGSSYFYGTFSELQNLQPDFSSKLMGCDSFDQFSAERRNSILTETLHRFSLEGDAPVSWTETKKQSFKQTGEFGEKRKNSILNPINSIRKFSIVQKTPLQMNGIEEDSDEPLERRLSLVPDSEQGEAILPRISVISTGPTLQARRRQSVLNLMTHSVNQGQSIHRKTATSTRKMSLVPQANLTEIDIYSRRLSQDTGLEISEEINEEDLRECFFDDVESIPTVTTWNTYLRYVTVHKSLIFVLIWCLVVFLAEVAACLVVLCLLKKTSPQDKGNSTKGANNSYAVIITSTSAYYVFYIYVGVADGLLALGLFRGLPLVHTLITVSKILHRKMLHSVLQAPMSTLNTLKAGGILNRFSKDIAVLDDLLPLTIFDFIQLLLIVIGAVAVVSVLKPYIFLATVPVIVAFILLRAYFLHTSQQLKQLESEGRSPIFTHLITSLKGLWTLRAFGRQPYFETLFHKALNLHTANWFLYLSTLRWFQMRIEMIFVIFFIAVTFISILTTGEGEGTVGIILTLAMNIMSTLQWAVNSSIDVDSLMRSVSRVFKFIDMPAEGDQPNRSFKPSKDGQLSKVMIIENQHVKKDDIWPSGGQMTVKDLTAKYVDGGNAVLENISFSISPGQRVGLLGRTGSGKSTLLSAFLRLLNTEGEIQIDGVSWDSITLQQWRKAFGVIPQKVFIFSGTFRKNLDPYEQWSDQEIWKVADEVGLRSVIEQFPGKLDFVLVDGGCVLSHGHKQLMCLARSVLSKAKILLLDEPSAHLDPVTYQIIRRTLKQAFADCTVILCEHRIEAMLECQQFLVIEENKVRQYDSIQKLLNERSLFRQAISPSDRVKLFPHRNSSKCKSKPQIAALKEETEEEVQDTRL
Protocol: as §1, §2, §3

W1145Y-CFTR = target: T4, W1145Y-CFTR (Homo sapiens, UniProt P13569, W1145Y); conditions: for inhibition at 0.5 µM: 500 nM Inh-172; for inhibition at 5 µM: 5000 nM Inh-172; for inhibition at 10 µM: 10000 nM Inh-172
T4 construct: expressed in transfected cells; host or cells: CHO cells, pcDNA plasmid
T4 sequence (P13569 whole entry W1145Y): as the sequence (P13569 whole entry T1142A) above, with A1142T, W1145Y counted along it
Protocol: as §1, §2, §3

[2] = 100 nM Inh-172, read-out: percent inhibition of current, Mean
[3] = 500 nM Inh-172, read-out: percent inhibition of current, Mean
[4] = 1000 nM Inh-172, read-out: percent inhibition of current, Mean
[5] = 5000 nM Inh-172, read-out: percent inhibition of current, Mean
[6] = 5000 nM Inh-172, read-out: percent inhibition of current, individual cell
[7] = 10000 nM Inh-172, read-out: percent inhibition of current, Mean
[8] = 10000 nM Inh-172, read-out: percent inhibition of current, individual cell
[9] = read-out: percent inhibition of current, Mean
[10] = read-out: percent inhibition of current, individual cell

T1 sequence (P13569 whole entry M348K): as the sequence (P13569 whole entry T1142A) above, with M348K, A1142T counted along it

**Q.** How did the “percent inhibition of current, individual cell” value (from here on “percent inhibition of current”) (M348K-CFTR; 100 nM Inh-172) turn out when `O=C(O)c1ccc(/C=C2\SC(=S)N(c3cccc(C(F)(F)F)c3)C2=O)cc1` [Inh-172, CFTRinh-172] was run?
**A.** 10.0 and 17.0 and 1.0 and 23.0

**Q.** And the inhibition at 0.1 µM (M348K-CFTR; [2])?
**A.** 12.8%

**Q.** And the “percent inhibition of current” value (M348K-CFTR; 250 nM Inh-172)?
**A.** 31.0 and 36.0 and 35.0

**Q.** What about the inhibition at 0.25 µM (M348K-CFTR; 250 nM Inh-172, read-out: percent inhibition of current, Mean) of the same molecule?
**A.** 35.3%

**Q.** What about the inhibition at 0.25 µM (M348K-CFTR; 250 nM Inh-172, read-out: percent inhibition of current, individual cell) of the same molecule?
**A.** 39%

**Q.** And the “percent inhibition of current” value (M348K-CFTR; 500 nM Inh-172)?
**A.** 50.0 and 41.0 and 62.0 and 56.0 and 63.0

**Q.** What about the inhibition at 0.5 µM (M348K-CFTR; [3]) of the same molecule?
**A.** 54.4%

**Q.** What about the “percent inhibition of current” value (M348K-CFTR; 1000 nM Inh-172) of the same molecule?
**A.** 61.0 and 64.0 and 60.0

**Q.** What about the inhibition at 1 µM (M348K-CFTR; [4]) of the same molecule?
**A.** 64.2%

**Q.** What about the inhibition at 1 µM (M348K-CFTR; 1000 nM Inh-172, read-out: percent inhibition of current, individual cell) of the same molecule?
**A.** 68%

**Q.** And the “percent inhibition of current” value (M348K-CFTR; 5000 nM Inh-172)?
**A.** 94.0 and 84.0 and 81.0

**Q.** And the inhibition at 5 µM (M348K-CFTR; [5])?
**A.** 86.6%

**Q.** What about the inhibition at 5 µM (M348K-CFTR; [6]) of the same molecule?
**A.** 90%

**Q.** What about the “percent inhibition of current” value (M348K-CFTR; 10000 nM Inh-172) of the same molecule?
**A.** 89.0 and 83.0

**Q.** And the inhibition at 10 µM (M348K-CFTR; [7])?
**A.** 88%

**Q.** And the inhibition at 10 µM (M348K-CFTR; [8])?
**A.** 92%

**Q.** What about the “Hill Coefficient” value (M348K-CFTR; M348K) of the same molecule?
**A.** 0.90 ± 0.10

**Q.** What about the IC50 (M348K-CFTR; M348K) of the same molecule?
**A.** 0.52 ± 0.06 µM

**Q.** And the “percent inhibition of current” value (T1142A-CFTR; 100 nM Inh-172)?
**A.** 28.0 and 24.0 and 52.0 and 14.0 and 42.0

**Q.** What about the inhibition at 0.1 µM (T1142A-CFTR; [2]) of the same molecule?
**A.** 31.3%

**Q.** And the “percent inhibition of current” value (T1142A-CFTR; 500 nM Inh-172)?
**A.** 61.0 and 67.0 and 78.0 and 44.0 and 66.0

**Q.** And the inhibition at 0.5 µM (T1142A-CFTR; [3])?
**A.** 63.2%

**Q.** What about the “percent inhibition of current” value (T1142A-CFTR; 1000 nM Inh-172) of the same molecule?
**A.** 74.0 and 70.0 and 87.0 and 60.0 and 78.0

**Q.** And the inhibition at 1 µM (T1142A-CFTR; [4])?
**A.** 73.8%

**Q.** What about the “percent inhibition of current” value (T1142A-CFTR; 5000 nM Inh-172) of the same molecule?
**A.** 93.0 and 96.0 and 84.0

**Q.** What about the inhibition at 5 µM (T1142A-CFTR; [5]) of the same molecule?
**A.** 91.2%

**Q.** What about the inhibition at 5 µM (T1142A-CFTR; [6]) of the same molecule?
**A.** 90%

**Q.** And the “percent inhibition of current” value (T1142A-CFTR; 10000 nM Inh-172)?
**A.** 98.0 and 92.0

**Q.** And the inhibition at 10 µM (T1142A-CFTR; [7])?
**A.** 96.2%

**Q.** And the inhibition at 10 µM (T1142A-CFTR; [8])?
**A.** 97%

**Q.** And the “Hill Coefficient” value (T1142A-CFTR; T1142A)?
**A.** 0.81 ± 0.02

**Q.** What about the IC50 (T1142A-CFTR; T1142A) of the same molecule?
**A.** 0.27 ± 0.01 µM

**Q.** And the inhibition at 0.1 µM [1, 2]?
**A.** 6.8%

**Q.** What about the inhibition at 0.5 µM [1, 9] of the same molecule?
**A.** 18.8%

**Q.** What about the inhibition at 0.5 µM [1, 10] of the same molecule?
**A.** 15%

**Q.** What about the inhibition at 1 µM [1, 9] of the same molecule?
**A.** 28.5%

**Q.** What about the inhibition at 1 µM [1, 10] of the same molecule?
**A.** 22%

**Q.** And the inhibition at 5 µM [1, 5]?
**A.** 56.5%

**Q.** What about the inhibition at 10 µM [1, 9] of the same molecule?
**A.** 62.7%

**Q.** What about the inhibition at 10 µM [1, 10] of the same molecule?
**A.** 68%

**Q.** And the “Hill Coefficient” value ([1]; h-pTMD2-h)?
**A.** 0.69 ± 0.04

**Q.** And the IC50 ([1]; h-pTMD2-h)?
**A.** 4.02 ± 0.28 µM

**Q.** And the IC50 ([1]; human CFTR with pig TMD2, earlier manuscript version, peer review file)?
**A.** 4.02 µM

**Q.** And the inhibition at 0.1 µM (W1145Y-CFTR; [2])?
**A.** 10.8%

**Q.** And the inhibition at 0.5 µM (W1145Y-CFTR; [9])?
**A.** 38%

**Q.** What about the inhibition at 0.5 µM (W1145Y-CFTR; [10]) of the same molecule?
**A.** 29%

**Q.** And the inhibition at 1 µM (W1145Y-CFTR; [4])?
**A.** 54%

**Q.** What about the inhibition at 5 µM (W1145Y-CFTR; [9]) of the same molecule?
**A.** 82%

**Q.** What about the inhibition at 5 µM (W1145Y-CFTR; [10]) of the same molecule?
**A.** 77%

**Q.** And the inhibition at 10 µM (W1145Y-CFTR; [9])?
**A.** 91.4%

**Q.** And the inhibition at 10 µM (W1145Y-CFTR; [10])?
**A.** 88%

**Q.** And the “Hill Coefficient” value (W1145Y-CFTR; W1145Y)?
**A.** 0.92 ± 0.03

**Q.** And the IC50 (W1145Y-CFTR; W1145Y)?
**A.** 0.87 ± 0.03 µM
